Species: Rattus norvegicus
Experiment: DrugMatrix - Regimen: Daily Repeat
Assay type: toxicity, organism-based, Sprague-Dawley
Parameters: regimen Daily Repeat, gender Male, age 6-8 weeks
Details: in vivo, po, route oral GAVAGE, vehicle 100 % WATER; for ABSOLUTE BASOPHIL / ABSOLUTE EOSINOPHIL / ABSOLUTE LYMPHOCYTE / ABSOLUTE MONOCYTE / ABSOLUTE SEGMENTED NEUTROPHIL / BASOPHIL / EOSINOPHIL / ERYTHROCYTE COUNT / HEMATOCRIT / HEMOGLOBIN / LEUKOCYTE COUNT / LYMPHOCYTE / MEAN CORPUSCULAR HEMOGLOBIN / MEAN CORPUSCULAR HEMOGLOBIN CONCENTRATION / MEAN CORPUSCULAR VOLUME / MONOCYTE / NEUTROPHIL / NUCLEATED RED BLOOD CELLS / PLATELET COUNT: tissue Blood; for ALANINE AMINOTRANSFERASE / ALBUMIN / ALKALINE PHOSPHATASE / ASPARTATE AMINOTRANSFERASE / BLOOD UREA NITROGEN / CARBON DIOXIDE / CHLORIDE / CHOLESTEROL / CREATINE PHOSPHOKINASE / CREATININE / GLUCOSE / LACTATE DEHYDROGENASE / LIPASE / PHOSPHORUS / POTASSIUM / SODIUM / TOTAL BILIRUBIN / TOTAL PROTEIN / URIC ACID: tissue Plasma
[1] = 0 mg/kg, 72 h, dose level Control, time 3 day
[2] = 0 mg/kg, 120 h, dose level Control, time 5 day
[3] = 14 mg/kg, 72 h, dose level Low, time 3 day

C[C@H]1c2cccc(O)c2C(=O)C2=C(O)[C@]3(O)C(=O)C(C(N)=O)=C(O)[C@@H](N(C)C)[C@@H]3[C@@H](O)[C@@H]21.O [DOXYCYCLINE]
ABSOLUTE BASOPHIL [1]: 0 CELLS/uL | ABSOLUTE EOSINOPHIL [1]: 86.33 CELLS/uL | ABSOLUTE LYMPHOCYTE [1]: 12090.17 CELLS/uL | ABSOLUTE MONOCYTE [1]: 166.67 CELLS/uL | ABSOLUTE SEGMENTED NEUTROPHIL [1]: 1090.17 CELLS/uL | BASOPHIL [1]: 0% | EOSINOPHIL [1]: 0.67% | ERYTHROCYTE COUNT [1]: 5.57 x10E6/uL | HEMATOCRIT [1]: 35.33% | HEMOGLOBIN [1]: 13.83 G/DL | LEUKOCYTE COUNT [1]: 13.43 x10E3/uL | LYMPHOCYTE [1]: 89.83% | MEAN CORPUSCULAR HEMOGLOBIN [1]: 24.88 pg | MEAN CORPUSCULAR HEMOGLOBIN CONCENTRATION [1]: 39.15 G/DL | MEAN CORPUSCULAR VOLUME [1]: 63.52 fL | MONOCYTE [1]: 1.17% | NEUTROPHIL [1]: 8.33% | NUCLEATED RED BLOOD CELLS [1]: 0 /100WBC | PLATELET COUNT [1]: 1181.33 x10E3/uL | ALANINE AMINOTRANSFERASE [1]: 48.33 u/L | ALBUMIN [1]: 4.1 G/DL | ALKALINE PHOSPHATASE [1]: 395 u/L | ASPARTATE AMINOTRANSFERASE [1]: 81.83 u/L | BLOOD UREA NITROGEN [1]: 15.83 mg/dL | CARBON DIOXIDE [1]: 24.17 mmol/L | CHLORIDE [1]: 103.83 MEQ/L | CHOLESTEROL [1]: 63.67 mg/dL | CREATINE PHOSPHOKINASE [1]: 372.83 u/L | CREATININE [1]: 0.18 mg/dL | GLUCOSE [1]: 173.83 mg/dL | LACTATE DEHYDROGENASE [1]: 188.33 u/L | LIPASE [1]: 9.5 u/L | PHOSPHORUS [1]: 11.95 mg/dL | POTASSIUM [1]: 5.99 MEQ/L | SODIUM [1]: 144.43 MEQ/L | TOTAL BILIRUBIN [1]: 0.15 mg/dL | TOTAL PROTEIN [1]: 5.95 G/DL | URIC ACID [1]: 1.82 mg/dL | ABSOLUTE BASOPHIL [2]: 0 CELLS/uL | ABSOLUTE EOSINOPHIL [2]: 26.67 CELLS/uL | ABSOLUTE LYMPHOCYTE [2]: 7583.83 CELLS/uL | ABSOLUTE MONOCYTE [2]: 131.33 CELLS/uL | ABSOLUTE SEGMENTED NEUTROPHIL [2]: 674.83 CELLS/uL | BASOPHIL [2]: 0% | EOSINOPHIL [2]: 0.33% | ERYTHROCYTE COUNT [2]: 5.78 x10E6/uL | HEMATOCRIT [2]: 36.48% | HEMOGLOBIN [2]: 14.03 G/DL | LEUKOCYTE COUNT [2]: 8.42 x10E3/uL | LYMPHOCYTE [2]: 89.83% | MEAN CORPUSCULAR HEMOGLOBIN [2]: 24.3 pg | MEAN CORPUSCULAR HEMOGLOBIN CONCENTRATION [2]: 38.52 G/DL | MEAN CORPUSCULAR VOLUME [2]: 63.15 fL | MONOCYTE [2]: 1.67% | NEUTROPHIL [2]: 8.17% | NUCLEATED RED BLOOD CELLS [2]: 0 /100WBC | PLATELET COUNT [2]: 1186.67 x10E3/uL | ALANINE AMINOTRANSFERASE [2]: 50.17 u/L | ALBUMIN [2]: 4.07 G/DL | ALKALINE PHOSPHATASE [2]: 367.5 u/L | ASPARTATE AMINOTRANSFERASE [2]: 81.67 u/L | BLOOD UREA NITROGEN [2]: 16.17 mg/dL | CARBON DIOXIDE [2]: 32.33 mmol/L | CHLORIDE [2]: 101.5 MEQ/L | CHOLESTEROL [2]: 65.33 mg/dL | CREATINE PHOSPHOKINASE [2]: 255.33 u/L | CREATININE [2]: 0.17 mg/dL | GLUCOSE [2]: 139.33 mg/dL | LACTATE DEHYDROGENASE [2]: 95 u/L | LIPASE [2]: 10.5 u/L | PHOSPHORUS [2]: 10.38 mg/dL | POTASSIUM [2]: 6.11 MEQ/L | SODIUM [2]: 145.55 MEQ/L | TOTAL BILIRUBIN [2]: 0.17 mg/dL | TOTAL PROTEIN [2]: 5.98 G/DL | URIC ACID [2]: 0.93 mg/dL | ABSOLUTE BASOPHIL [3]: 0 CELLS/uL | ABSOLUTE EOSINOPHIL [3]: 116.33 CELLS/uL | ABSOLUTE LYMPHOCYTE [3]: 13980 CELLS/uL | ABSOLUTE MONOCYTE [3]: 147.67 CELLS/uL | ABSOLUTE SEGMENTED NEUTROPHIL [3]: 1122.67 CELLS/uL | BASOPHIL [3]: 0% | EOSINOPHIL [3]: 0.67% | ERYTHROCYTE COUNT [3]: 5.35 x10E6/uL | HEMATOCRIT [3]: 33.67% | HEMOGLOBIN [3]: 13.37 G/DL | LEUKOCYTE COUNT [3]: 15.37 x10E3/uL | LYMPHOCYTE [3]: 90.33% | MEAN CORPUSCULAR HEMOGLOBIN [3]: 25 pg | MEAN CORPUSCULAR HEMOGLOBIN CONCENTRATION [3]: 39.73 G/DL | MEAN CORPUSCULAR VOLUME [3]: 62.97 fL | MONOCYTE [3]: 1% | NEUTROPHIL [3]: 8% | NUCLEATED RED BLOOD CELLS [3]: 0 /100WBC | PLATELET COUNT [3]: 1183 x10E3/uL | ALANINE AMINOTRANSFERASE [3]: 54 u/L | ALBUMIN [3]: 3.97 G/DL | ALKALINE PHOSPHATASE [3]: 325.67 u/L | ASPARTATE AMINOTRANSFERASE [3]: 90 u/L | BLOOD UREA NITROGEN [3]: 18 mg/dL | CARBON DIOXIDE [3]: 24.33 mmol/L | CHLORIDE [3]: 103.67 MEQ/L | CHOLESTEROL [3]: 61.33 mg/dL | CREATINE PHOSPHOKINASE [3]: 372 u/L | CREATININE [3]: 0.12 mg/dL | GLUCOSE [3]: 163.33 mg/dL | LACTATE DEHYDROGENASE [3]: 339 u/L | LIPASE [3]: 8.67 u/L | PHOSPHORUS [3]: 11.87 mg/dL | POTASSIUM [3]: 5.76 MEQ/L | SODIUM [3]: 143.73 MEQ/L | TOTAL BILIRUBIN [3]: 0.2 mg/dL | TOTAL PROTEIN [3]: 5.77 G/DL | URIC ACID [3]: 1.13 mg/dL

Reference: ChEMBL document CHEMBL3885881, “DrugMatrix”
